From patent publication US8759308B2, “RNAi probes targeting cancer-related proteins” (The University of British Columbia, priority 2002, dated 2014)
d = 2'-deoxy (DNA); r = 2'-OH (RNA)

Assays:
KH OS and U-2 OS cells = test: DXR effects in OS cells (TUNEL, protein expression); format: cell-based, human
Experimental: Sustained silencing of CLU gene expression in OS cells by siRNA results in significant sensitization to apoptosis induced by genotoxic and oxidative stress. Prior to CLU functional assays, we analyzed the DXR effects in OS cells since the drug-related reported effects vary in different cell-types (Gewritz et al., Biochem. Pharmacol. 57: 727-741 (1999)). As the DXR plasma concentration in treated patients fall into a range of 1-2 μM and decline into a range of 0.025-0.25 μM within 1 h (Muller et al, Cancer Chemother. Pharmacol., 32: 379-384 (1993)) cells were treated with 0.35 and 1 μM of DXR. To analyze the extent of the DXR-mediated cell death we scored apoptosis by TUNEL. Attached cells following drug treatment for 24 h underwent significant morphological changes as compared to non-treated control cells. […] On-going apoptosis is also apparent 24 h later, verifying that apoptosis is a dynamic process that continues even after DXR removal from the medium.

[1] = human, in vivo; cited from earlier work
clusterin [2] = test: Clusterin Western blot in PC3 cells; format: cell-based, human; conditions: 10, 50 and 100 nM
Experimental: 8 species of siRNA targeting clusterin were formed as double-stranded RNA from Seq. ID NOs. 1 and 2, 3 and 4, 5 and 6, 7 and 8, 9 and 10, 11 and 12, 13 and 14, and 15 and 16, and labeled as CLU1-CLU 8, respectively. PC3 cells were transfected with various doses (10, 50 and 100 nM) of the 8 species of siRNA or scrambled control. Three days after treatment, proteins were extracted and analyzed by Western blotting for clusterin levels (MW=40 and 60 kDa).
Densitometric measurements were performed after normalization to a vinculin control the blots for cells treated with CLU-5 (Seq ID Nos. 9 and 10). “Oligo” cells were treated with oligoFECTAMINE™ only.

clusterin [3] = test: Clusterin Western blot in A549 cells; format: cell-based, human; conditions: 10, 50 and 100 nM
clusterin transcript [4] = test: Clusterin transcript by Real Time PCR in PC3 cells; format: cell-based, human; conditions: 10, 50 or 100 nM, two days
Experimental: (§1) PC3 cells were transfected with siRNA at levels of 10, 50 or 100 nM or with 100 nM scrambled control. Two days after transfection, total RNA was extracted and the level of clusterin transcript was quantified by Real Time PCR.

clusterin transcript [5] = test: Clusterin transcript by Real Time PCR in A549 cells; format: cell-based, human; conditions: 10, 50 or 100 nM, two days
Experimental: as §1
The experiment of Example 9 was repeated using A549 cells in place of PC3 cells.

clusterin transcript [6] = test: Clusterin transcript by Northern blot in PC3 cells; format: cell-based, human; conditions: all doses (10, 50 or 100 nM), two days
Experimental: PC3 cells were treated (1 pulse) with CLU-3 (Seq ID NOs. 5 and 6) or CLU-5 (Seq ID Nos 9 and 10) or with a scrambled control at levels of 10, 50 or 100 nM, or with oligoFECTAMINE™ only. After two days total RNA was extracted and analyzed for clusterin and GADPH by Northern blotting. Densitometric measurement was performed. FIG. 10 presents results of these measurements after normalization to GADPH.

PC3 cells = test: PC3 cell viability with siRNA and Taxol, MTT assay; format: cell-based, human; conditions: 25 nM siRNA, then Taxol three days
Experimental: PC3 cells were treated once with 25 nM human clusterin siRNAs (CLU-3 and CLU-5), a scrambled control, or oligoFECTAMINE™ only. After two days of treatment, the medium was replaced with medium containing various concentrations of Taxol (Paclitaxel). After three days of incubation, cell viability was determined by MTT assay. FIG. 11 summarizes the results.

clusterin transcript [7] = test: Clusterin mRNA by Northern blot in OVCAR3 cells; format: cell-based, human; conditions: 1, 10 or 50 nM, two days
Experimental: OVCAR3 ovarian cancer cells were treated once with 1, 10 or 50 nM CLU5, scrambled control or a vehicle only control. An untreated control was also run. After two days, total RNA was extracted and analyzed for clusterin and GAPDH mRNA by Northern blot.

clusterin transcript [8] = test: Clusterin mRNA by Northern blot in MDA-MB 231 cells; format: cell-based, human; conditions: 5, 50 or 100 nM, two days
Experimental: MDA-MB 231 human breast cancer cells were transfected with 5, 50 or 100 nM CLU-5 or a scrambled control, or with oligoFECTAMINE™ vehicle alone. Two days after transfection, RNA was extracted and analyzed for clusterin and GAPDH by Northern blotting.

clusterin transcript [9] = test: Clusterin mRNA by Northern blot in MCF-7 cells; format: cell-based, human; conditions: 5, 25 or 50 nM, two days
Experimental: MCF-7 human breast cancer cells were transfected with 5, 25 or 50 nM CLU-5 or a scrambled control, or with oligoFECTAMINE™ vehicle alone. Two days after transfection, RNA was extracted and analyzed for clusterin and GAPDH by Northern blotting.

clusterin [10] = test: Clusterin Western blot in MCF-7 cells; format: cell-based, human; conditions: 5 and 50 nM, three days
Experimental: MCF-7 cells were transfected with various doses (5 and 50 nM) of CLU-5 siRNA or scrambled control. Three days after treatment, proteins were extracted and analyzed by Western blotting for clusterin levels (MW=40 and 60 kDa).

clusterin [11] = test: Clusterin Western blot in clusterin overexpressing LNCaP/T1 cells; format: cell-based, human; conditions: 10 nM, 1 pulse, three days
Experimental: Clusterin overexpressing LNCaP)/T1 cells were transfected (1 pulse) with 10 nM CLU-5 siRNA or scrambled control. Three days after treatment, the proteins were extracted and analyzed by Western blotting for clusterin.

Molecule | bcl-2 expression (KH OS and U-2 OS cells; KH OS and U-2 OS cells) | accumulation of p53, p21 and bax (KH OS and U-2 OS cells; OS cell lines) | PARP cleavage (KH OS and U-2 OS cells; OS cells after DXR treatment) | apoptosis by TUNEL (KH OS and U-2 OS cells; OS cells, 0.35 and 1 μM DXR, 24 h) | plasma concentration [1] | clusterin by densitometry normalized to vinculin (clusterin [2]) | amount of clusterin (Western blot) (clusterin [2]; three days) | clusterin by densitometry normalized to vinculin (clusterin [3]) | amount of clusterin transcript (clusterin transcript [4]) | amount of clusterin transcript (clusterin transcript [5]) | amount of clusterin transcript normalized to GADPH (clusterin transcript [6]) | viable cells with siRNA plus Taxol (PC3 cells) | amount of clusterin transcript normalized to GAPDH (clusterin transcript [7]) | amount of clusterin transcript normalized to GAPDH (clusterin transcript [8]) | amount of clusterin transcript normalized to GAPDH (clusterin transcript [9]) | amount of clusterin protein relative to scrambled control (clusterin [10]) | clusterin detected by Western blot (clusterin [11])
COc1cccc2c1C(=O)c1c(O)c3c(c(O)c1C2=O)C[C@@](O)(C(=O)CO)C[C@@H]3O[C@H]1C[C@H](N)[C@H](O)[C@H](C)O1 [DXR] | no altered expression | found only in U-2 OS cells | accompanied by PARP cleavage | a significant number of them are TUNEL positive | 1000 to 2000 nM |  |  |  |  |  |  |  |  |  |  |  | 
CLU-5: clusterin siRNA, double-stranded RNA from Seq. ID NOs. 9 and 10 (chain 1 AUGAUGAAGACUCUGCUGCTT; chain 2 GCAGCAGAGUCUUCAUCAUTT; sugars from the 5' end r19 d2, backbone not given here) |  |  |  |  |  | dose dependent response | best results | dose dependent response | reduction in the amount of clusterin transcript | reduction in the amount of clusterin transcript | Reduction in the amount of clusterin transcript | worked in synergy | Substantial dose dependent reduction | Substantial reduction | Substantial dose-dependent reduction | reduction in the amount of clusterin protein | No clusterin was detected
